In patent US20240002391A1, “4-ALKOXYPYRROLO[2,1-F][1,2,4]TRIAZINES AND PREPARATION AND USES THEREOF” (BioSplice Therapeutics, Inc., priority 2022, published 2024):

Target: recombinant DYRK1A kinase (Homo sapiens (Human), UniProt Q13627)
Assay: DYRK1A kinase assay (Ser/Thr 18 peptide Z-lyte FRET)
Type: biochemical
Conditions: DYRK1A kinase activity, Z-lyte Ser/Thr 18 peptide, 15 μM ATP; method text calls the value IC50; read-out: EC50 (the source's name)
Procedure: Representative compounds were screened using the assay procedure for DYRK1A kinase activity as described below.
Each compound was dissolved in DMSO as a 10 mM stock and used to prepare compound source plates. Serial dilution (1:3, 11-point dose-response curves from 10 μM to 0.00016 μM) and compound transfer was performed using the ECHO 550 (Labcyte, Sunnyvale, CA) into 1536-well black-walled round bottom plates (Coming).
The DYRK1A kinase assay was run using the Ser/Thr 18 peptide Z-lyte assay kit according to manufacturer's instructions (Life Technologies-a Division of Thermo-Fisher). This is a non-radioactive assay using fluorescence resonance energy transfer (FRET) between coumarin and fluorescein to detect kinase activity which is represented as a ratio of coumarin emission/fluorescein emission.
Briefly, recombinant DYRK1A kinase, ATP and Ser/Thr peptide 18 were prepared in 1X Kinase buffer to final concentrations of 0.25 μg/mL, 15 μM, and 4 μM respectively. The mixture was allowed to incubate with the representative compounds for one hour at room temperature. All reactions were performed in duplicate. Unphosphorylated (“0% Control”) and phosphorylated (“100% control”) forms of Ser/Thr 18 served as control reactions. Additionally, an 11-point dose-response curve of Staurosporine (luM top) was run to serve as a positive compound control.
After incubation, Development Reagent A was diluted in Development Buffer then added to the reaction and allowed to further incubate for one hour at room temperature. The plate was read at Ex 400 Em 455 to detect the coumarin signal and Ex 400 Em 520 to measure the signal (EnVision Multilabel Plate Reader, PerkinElmer).
The Emission ratio (Em) was calculated as a ratio of the coumarin (C) emission signal (at 445 nm)/Fluorescein (F) emission signal (at 520 nm). The percent phosphorylation was then calculated using the following formula: [1−((Em ratio X F100%)-C100%)/((C0%-C100%) +(Em ratio X (F100%−F0%)))]. Dose-response curves were generated, and inhibitory concentration (IC50) values were calculated using non-linear regression curve fit in the Dotmatics' Studies Software (Bishops Stortford, UK).

SMILES	IC50 [nM]
COCCNC(=O)[C@]1(C)C[C@@H](Nc2nc(OC)c3c(-c4ccc5nnn(C)c5c4)ccn3n2)C1 [Compound 214, trans-3-((4-Methoxy-5-(1-methyl-1H-benzo[d][1,2,3]triazol-6-yl)pyrrolo[2,1-f][1,2,4]triazin-2-yl)amino)-N-(2-methoxyethyl)-1-methylcyclobutane-1-carboxamide]	2.2
COc1nc(N[C@H]2C[C@@](C)(NC(C)=O)C2)nn2ccc(-c3ccc4nccnc4c3)c12 [Compound 333, N-(cis-3-((4-Methoxy-5-(quinoxalin-6-yl)pyrrolo[2,1-f][1,2,4]triazin-2-yl)amino)-1-methylcyclobutyl)acetamide]	1.1
COc1nc(N[C@@H]2CCN(C(C)=O)CC2(F)F)nn2ccc(-c3ccc4nnn(C(C)C)c4c3)c12 [Compound 691, (R)-1-(3,3-Difluoro-4-((5-(1-isopropyl-1H-benzo[d][1,2,3]triazol-6-yl)-4-methoxypyrrolo[2,1-f][1,2,4]triazin-2-yl)amino)piperidin-1-yl)ethan-1-one]	1.4
COc1nc(N[C@H]2C[C@@](C)(O)C2)nn2ccc(-c3cc4ncccc4[nH]3)c12 [Compound 277, cis-3-((4-Methoxy-5-(1H-pyrrolo[3,2-b]pyridin-2-yl)pyrrolo[2,1-f][1,2,4]triazin-2-yl)amino)-1-methylcyclobutan-1-ol]	63.3
COc1nc(N[C@H]2CCN(C)C[C@H]2F)nn2ccc(-c3ccc4nccnc4c3)c12 [Compound 368, N-((3R,4S)-3-Fluoro-1-methylpiperidin-4-yl)-4-methoxy-5-(quinoxalin-6-yl)pyrrolo[2,1-f][1,2,4]triazin-2-amine]	4
C[C@]1(O)CC[C@H](Nc2nc(OC3COC3)c3c(-c4ccc5ncccc5c4)ccn3n2)CC1 [Compound 1089, (1r,4r)-1-Methyl-4-((4-(oxetan-3-yloxy)-5-(quinolin-6-yl)pyrrolo[2,1-f][1,2,4]triazin-2-yl)amino)cyclohexan-1-ol]	4.5
COc1nc(NC2CCN(CC(F)(F)F)CC2)nn2ccc(-c3ccc4ncccc4c3)c12 [Compound 305, 4-Methoxy-5-(quinolin-6-yl)-N-(1-(2,2,2-trifluoroethyl)piperidin-4-yl)pyrrolo[2,1-f][1,2,4]triazin-2-amine]	80.7
COc1nc(N[C@@H]2CCC(=O)N(C)C2)nn2ccc(-c3ccc4ncccc4c3)c12 [Compound 1049, (R)-5-((4-Methoxy-5-(quinolin-6-yl)pyrrolo[2,1-f][1,2,4]triazin-2-yl)amino)-1-methylpiperidin-2-one]	4.9
COc1nc(NC2CCN(CC(F)F)CC2)nn2ccc(-c3ccc4nccnc4c3)c12 [Compound 362, N-(1-(2,2-Difluoroethyl)piperidin-4-yl)-4-methoxy-5-(quinoxalin-6-yl)pyrrolo[2,1-f][1,2,4]triazin-2-amine]	6
COc1nc(N[C@H]2CN(C3COC3)C[C@H]2F)nn2ccc(-c3ccc4nc(C)n(CC(F)F)c4c3)c12 [Compound 505, 5-(1-(2,2-Difluoroethyl)-2-methyl-1H-benzo[d]imidazol-6-yl)-N-((3S,4R)-4-fluoro-1-(oxetan-3-yl)pyrrolidin-3-yl)-4-methoxypyrrolo[2,1-f][1,2,4]triazin-2-amine]	3.8
COc1nc(N[C@H]2CC[C@](C)(O)CC2)nn2ccc(-c3ccc4nnn(CC(F)(F)F)c4c3)c12 [Compound 911, (1r,4r)-4-((4-Methoxy-5-(1-(2,2,2-trifluoroethyl)-1H-benzo[d][1,2,3]triazol-6-yl)pyrrolo[2,1-f][1,2,4]triazin-2-yl)amino)-1-methylcyclohexan-1-ol]	2.1
COc1nc(N[C@H]2CC[C@H](NC(C)=O)CC2)nn2ccc(-c3ccn4nccc4c3)c12 [Compound 18, N-(trans-4-((4-Methoxy-5-(pyrazolo[1,5-a]pyridin-5-yl)pyrrolo[2,1-f][1,2,4]triazin-2-yl)amino)cyclohexyl)acetamide]	7.4
COc1nc(N[C@H](C)c2ccccc2)nn2ccc(-c3cnc4nccn4c3)c12 [Compound 233, (R)-5-(Imidazo[1,2-a]pyrimidin-6-yl)-4-methoxy-N-(1-phenylethyl)pyrrolo[2,1-f][1,2,4]triazin-2-amine]	6.8
COc1nc(N[C@@H]2C[C@@H]3CN(C(C)=O)C[C@@H]3C2)nn2ccc(-c3ccc4nccnc4c3)c12 [Compound 388, 1-((3aR,5r,6aS)-5-((4-Methoxy-5-(quinoxalin-6-yl)pyrrolo[2,1-f][1,2,4]triazin-2-yl)amino)hexahydrocyclopenta[c]pyrrol-2(1H)-yl)ethan-1-one]	1.2
COc1nc(N[C@@H]2CCN(C(C)=O)CC2(F)F)nn2ccc(-c3ccc4ncn(CC(F)F)c4c3)c12 [Compound 1140, (R)-1-(4-((5-(1-(2,2-Difluoroethyl)-1H-benzo[d]imidazol-6-yl)-4-methoxypyrrolo[2,1-f][1,2,4]triazin-2-yl)amino)-3,3-difluoropiperidin-1-yl)ethan-1-one]	1.3
CN1CC[C@@H](Nc2nc(OC3COC3)c3c(-c4ccc5nccnc5c4)ccn3n2)C(F)(F)C1 [Compound 1136, (R)—N-(3,3-Difluoro-1-methylpiperidin-4-yl)-4-(oxetan-3-yloxy)-5-(quinoxalin-6-yl)pyrrolo[2,1-f][1,2,4]triazin-2-amine]	3.8
COc1nc(N[C@H]2CCN(C(C)=O)C[C@H]2F)nn2ccc(-c3ccc4nnn(CCF)c4c3)c12 [Compound 664, 1-((3R,4S)-3-Fluoro-4-((5-(1-(2-fluoroethyl)-1H-benzo[d][1,2,3]triazol-6-yl)-4-methoxypyrrolo[2,1-f][1,2,4]triazin-2-yl)amino)piperidin-1-yl)ethan-1-one]	1.6
CC[C@]1(O)CC[C@@H](Nc2nc(OC)c3c(-c4ccc5nnn(CC(F)F)c5c4)ccn3n2)CC1 [Compound 726, (1s,4s)-4-((5-(1-(2,2-Difluoroethyl)-1H-benzo[d][1,2,3]triazol-6-yl)-4-methoxypyrrolo[2,1-f][1,2,4]triazin-2-yl)amino)-1-ethylcyclohexan-1-ol]	1.8
COc1nc(NC2CCN(C(C)=O)CC2)nn2ccc(-c3ccc4nc(C)n(CC(F)F)c4c3)c12 [Compound 122, 1-(4-((5-(1-(2,2-Difluoroethyl)-2-methyl-1H-benzo[d]imidazol-6-yl)-4-methoxypyrrolo[2,1-f]1[1,2,4]triazin-2-yl)amino)piperidin-1-yl)ethan-1-one]	1.6
CN1CC[C@@H](Nc2nc(OC3COC3)c3c(-c4ccc5ncccc5c4)ccn3n2)C(F)(F)C1 [Compound 1091, (R)—N-(3,3-Difluoro-1-methylpiperidin-4-yl)-4-(oxetan-3-yloxy)-5-(quinolin-6-yl)pyrrolo[2,1-f][1,2,4]triazin-2-amine]	1.8
COc1nc(N[C@@H]2CN(C3COC3)C[C@@H]2F)nn2ccc(-c3ccc4nccnc4c3)c12 [Compound 355, N-((3R,4S)-4-Fluoro-1-(oxetan-3-yl)pyrrolidin-3-yl)-4-methoxy-5-(quinoxalin-6-yl)pyrrolo[2,1-f][1,2,4]triazin-2-amine]	2.7
CCOc1nc(N[C@H]2C[C@@H](OCCO)C2)nn2ccc(-c3ccn4nccc4c3)c12 [Compound 91, 2-(cis-3-((4-Ethoxy-5-(pyrazolo[1,5-a]pyridin-5-yl)pyrrolo[2,1-f][1,2,4]triazin-2-yl)amino)cyclobutoxy)ethan-1-ol]	1.6
COc1nc(N[C@@H]2CCN(C(C)=O)CC2(F)F)nn2ccc(-c3ccc4nnn(CCF)c4c3)c12 [Compound 669, (R)-1-(3,3-Difluoro-4-((5-(1-(2-fluoroethyl)-1H-benzo[d][1,2,3]triazol-6-yl)-4-methoxypyrrolo[2,1-f][1,2,4]triazin-2-yl)amino)piperidin-1-yl)ethan-1-one]	1.6
COc1nc(N[C@@H]2CCN(C3COC3)CC2(F)F)nn2cc(F)c(-c3ccc4ncccc4c3)c12 [Compound 1062, (R)—N-(3,3-Difluoro-1-(oxetan-3-yl)piperidin-4-yl)-6-fluoro-4-methoxy-5-(quinolin-6-yl)pyrrolo[2,1-f][1,2,4]triazin-2-amine]	3.7
COc1nc(N[C@H]2C[C@H](C(C)(C)O)C2)nn2ccc(-c3ccc4ncccc4c3)c12 [Compound 287, 2-(trans-3-((4-methoxy-5-(quinolin-6-yl)pyrrolo[2,1-f][1,2,4]triazin-2-yl)amino)cyclobutyl)propan-2-ol]	2.2
COc1nc(N[C@H]2C[C@@H](OCCO)C2)nn2ccc(-c3ccc4nnn(C)c4c3)c12 [Compound 201, 2-(cis-3-((4-Methoxy-5-(1-methyl-1H-benzo[d][1,2,3]triazol-6-yl)pyrrolo[2,1-f][1,2,4]triazin-2-yl)amino)cyclobutoxy)ethan-1-ol]	2
